Measured values reported in patent US10392368B2, “Pyrazolo and triazolo bicyclic compounds as JAK kinase inhibitors” (THERAVANCE BIOPHARMA R&D IP, LLC, priority 2017, dated 2019).
Like-named read-outs stand apart in the source and are kept apart here.

Assays:
[1] = biological target: T1, JAK1 (Homo sapiens, UniProt P23458); assay: Biochemical JAK1 kinase assay (LanthaScreen); conditions: for Ki: read-out: JAK 1 (pKi) (converted)
T1 construct: GST; purchased Life Technologies
Method in brief: (§1)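 GST-tagged JAK enzyme and GFP-STAT1 peptide preincubated with compound 1 h, then ATP added; 1 h kinase reaction at ambient temperature, pH 7.5 HEPES/MgCl2 buffer, 1% DMSO. Tb-anti-pSTAT1 (pTyr701) TR-FRET, 520/495 nm ratio; IC50 from 4-parameter fit, converted to pKi via Cheng-Prusoff.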

[2] = biological target: T2, JAK2 (Homo sapiens, UniProt O60674); assay: Biochemical JAK2 kinase assay (LanthaScreen); conditions: for Ki: read-out: JAK 2 (pKi) (converted)
T2 construct: GST; purchased Life Technologies
Protocol: (§2) A panel of four LanthaScreen JAK biochemical assays (JAK1, 2, 3 and Tyk2) were carried in a common kinase reaction buffer (50 mM HEPES, pH 7.5, 0.01% Brij-35, 10 mM MgCl2, and 1 mM EGTA). Recombinant GST-tagged JAK enzymes and a GFP-tagged STAT1 peptide substrate were obtained from Life Technologies.
(§3) Serially or discretely diluted compounds were pre-incubated with each of the four JAK enzymes and the substrate in white 384-well microplates (Corning) at ambient temperature for 1 h. ATP was subsequently added to initiate the kinase reactions in 10 μL total volume, with 1% DMSO. […] Kinase reactions were allowed to proceed for 1 hour at ambient temperature before a 10 μL preparation of EDTA (10 mM final concentration) and Tb-anti-pSTAT1 (pTyr701) antibody (Life Technologies, 2 nM final concentration) in TR-FRET dilution buffer (Life Technologies) was added. The plates were allowed to incubate at ambient temperature for 1 h before being read on the EnVision reader (Perkin Elmer).
(§4) For dose-response analysis, percent inhibition data were plotted vs. compound concentrations, and IC50 values were determined from a 4-parameter robust fit model with the Prism software (GraphPad Software). Results were expressed as pIC50 (negative logarithm of IC50) and subsequently converted to pKi (negative logarithm of dissociation constant, Ki) using the Cheng-Prusoff equation.

[3] = biological target: T3, Tyk2 (Homo sapiens, UniProt P29597); assay: Biochemical Tyk2 kinase assay (LanthaScreen); conditions: for Ki: read-out: Tyk 2 (pKi) (converted)
T3 construct: GST; purchased Life Technologies
Protocol: as §2
as §3, with “Elmer). Emission ratio signals (520 nm/495 nm) were recorded and utilized to calculate the percent inhibition values based on DMSO and background controls.” for “Elmer).”
as §4

[4] = tested on: IL-2 stimulated pSTAT5 in Tall-1 T cells; assay: Cellular JAK3 potency assay: inhibition of IL-2 stimulated pSTAT5 in Tall-1 T cells; format: cell-based, human; conditions: for IC50: Homo sapiens, read-out: Tall-1 (pIC50) (converted)
Method in brief: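 Tall-1 human T cells (45,000/well) in phenol red-free DMEM with 10% FBS were preincubated with compound 1 h at 37 °C, then stimulated with IL-2 (final 300 ng/ml) for 30 min. Lysate pSTAT5 read by AlphaLisa; IC50 from inhibition curves, reported as pIC50 (mean±SD).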

[5] = biological target: T4, JAK3 (Homo sapiens, UniProt P52333); assay: Biochemical JAK3 kinase assay (LanthaScreen); parameters: GST; purchased Life Technologies; conditions: for Ki: read-out: JAK 3 (pKi) (converted)
T4 sequence (P52333 1-1124): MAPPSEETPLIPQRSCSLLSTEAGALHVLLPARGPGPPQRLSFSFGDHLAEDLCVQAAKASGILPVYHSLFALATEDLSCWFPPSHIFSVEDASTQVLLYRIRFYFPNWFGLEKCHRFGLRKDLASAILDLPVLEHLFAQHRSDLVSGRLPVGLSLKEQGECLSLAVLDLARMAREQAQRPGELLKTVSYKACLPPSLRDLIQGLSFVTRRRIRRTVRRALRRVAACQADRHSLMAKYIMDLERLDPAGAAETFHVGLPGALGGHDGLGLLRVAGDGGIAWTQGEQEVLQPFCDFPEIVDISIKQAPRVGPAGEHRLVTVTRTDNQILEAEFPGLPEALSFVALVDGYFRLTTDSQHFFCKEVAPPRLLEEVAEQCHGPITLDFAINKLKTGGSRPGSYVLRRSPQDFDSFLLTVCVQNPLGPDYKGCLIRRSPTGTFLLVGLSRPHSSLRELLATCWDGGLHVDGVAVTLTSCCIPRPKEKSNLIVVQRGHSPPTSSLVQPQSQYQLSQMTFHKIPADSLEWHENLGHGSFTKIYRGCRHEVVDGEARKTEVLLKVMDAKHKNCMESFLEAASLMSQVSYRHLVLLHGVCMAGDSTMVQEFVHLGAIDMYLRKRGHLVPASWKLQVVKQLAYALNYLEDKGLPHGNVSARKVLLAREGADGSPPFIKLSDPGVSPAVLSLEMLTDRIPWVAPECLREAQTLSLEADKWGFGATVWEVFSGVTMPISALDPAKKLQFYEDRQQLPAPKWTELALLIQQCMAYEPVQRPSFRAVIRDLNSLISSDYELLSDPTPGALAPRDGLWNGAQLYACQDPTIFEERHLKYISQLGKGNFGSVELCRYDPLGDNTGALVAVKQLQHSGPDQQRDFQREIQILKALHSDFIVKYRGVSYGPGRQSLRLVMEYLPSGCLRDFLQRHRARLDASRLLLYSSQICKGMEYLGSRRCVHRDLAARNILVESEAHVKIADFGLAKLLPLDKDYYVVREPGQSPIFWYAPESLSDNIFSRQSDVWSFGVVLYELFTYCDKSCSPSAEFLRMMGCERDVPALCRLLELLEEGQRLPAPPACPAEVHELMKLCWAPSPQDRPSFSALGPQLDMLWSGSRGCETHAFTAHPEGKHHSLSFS
Method in brief: as §1

[6] = IL-2 stimulated pSTAT5 in Tall-1 T cells
[7] = selectivity: difference of pKi JAK3 and pKi JAK1
[8] = TALL-1, IL-2 stimulated pSTAT5 in Tall-1 T cells
[9] = IL-2 stimulated pSTAT5, Tall-1 T cells
[10] = selectivity JAK3 over JAK1, difference of pKi
[11] = TALL-1, IL-2 stimulated pSTAT5, Tall-1 T cells

T3 sequence (P29597 whole entry): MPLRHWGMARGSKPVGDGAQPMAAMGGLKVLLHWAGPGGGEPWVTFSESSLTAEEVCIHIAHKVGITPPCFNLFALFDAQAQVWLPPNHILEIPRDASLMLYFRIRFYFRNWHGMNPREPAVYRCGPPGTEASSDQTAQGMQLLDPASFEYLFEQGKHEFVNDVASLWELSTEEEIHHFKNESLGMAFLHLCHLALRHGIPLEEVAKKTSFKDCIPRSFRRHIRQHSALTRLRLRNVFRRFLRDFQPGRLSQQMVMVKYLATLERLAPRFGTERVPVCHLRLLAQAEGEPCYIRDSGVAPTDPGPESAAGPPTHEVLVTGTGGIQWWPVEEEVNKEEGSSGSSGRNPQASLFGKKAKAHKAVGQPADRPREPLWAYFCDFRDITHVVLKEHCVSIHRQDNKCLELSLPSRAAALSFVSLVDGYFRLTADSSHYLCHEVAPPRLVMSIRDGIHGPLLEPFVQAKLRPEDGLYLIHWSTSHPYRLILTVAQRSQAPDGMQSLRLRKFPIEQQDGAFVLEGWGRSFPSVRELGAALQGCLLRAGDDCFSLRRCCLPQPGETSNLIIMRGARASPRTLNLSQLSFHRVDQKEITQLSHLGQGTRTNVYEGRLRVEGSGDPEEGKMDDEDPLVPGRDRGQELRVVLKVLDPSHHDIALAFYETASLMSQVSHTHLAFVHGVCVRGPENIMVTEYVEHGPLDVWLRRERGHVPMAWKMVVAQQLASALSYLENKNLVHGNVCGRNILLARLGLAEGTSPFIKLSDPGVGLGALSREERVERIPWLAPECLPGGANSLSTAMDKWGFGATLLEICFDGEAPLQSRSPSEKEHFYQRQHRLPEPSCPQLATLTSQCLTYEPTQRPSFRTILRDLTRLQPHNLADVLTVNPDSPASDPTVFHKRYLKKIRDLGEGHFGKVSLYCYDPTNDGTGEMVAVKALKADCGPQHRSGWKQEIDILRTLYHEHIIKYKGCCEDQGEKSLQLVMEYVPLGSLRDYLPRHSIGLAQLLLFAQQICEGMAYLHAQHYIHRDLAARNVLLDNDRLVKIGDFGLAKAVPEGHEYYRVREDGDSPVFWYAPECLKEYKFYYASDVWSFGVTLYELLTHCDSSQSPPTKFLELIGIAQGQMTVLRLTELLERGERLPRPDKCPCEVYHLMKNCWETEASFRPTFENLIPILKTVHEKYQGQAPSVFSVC
T1 sequence (P23458 whole entry): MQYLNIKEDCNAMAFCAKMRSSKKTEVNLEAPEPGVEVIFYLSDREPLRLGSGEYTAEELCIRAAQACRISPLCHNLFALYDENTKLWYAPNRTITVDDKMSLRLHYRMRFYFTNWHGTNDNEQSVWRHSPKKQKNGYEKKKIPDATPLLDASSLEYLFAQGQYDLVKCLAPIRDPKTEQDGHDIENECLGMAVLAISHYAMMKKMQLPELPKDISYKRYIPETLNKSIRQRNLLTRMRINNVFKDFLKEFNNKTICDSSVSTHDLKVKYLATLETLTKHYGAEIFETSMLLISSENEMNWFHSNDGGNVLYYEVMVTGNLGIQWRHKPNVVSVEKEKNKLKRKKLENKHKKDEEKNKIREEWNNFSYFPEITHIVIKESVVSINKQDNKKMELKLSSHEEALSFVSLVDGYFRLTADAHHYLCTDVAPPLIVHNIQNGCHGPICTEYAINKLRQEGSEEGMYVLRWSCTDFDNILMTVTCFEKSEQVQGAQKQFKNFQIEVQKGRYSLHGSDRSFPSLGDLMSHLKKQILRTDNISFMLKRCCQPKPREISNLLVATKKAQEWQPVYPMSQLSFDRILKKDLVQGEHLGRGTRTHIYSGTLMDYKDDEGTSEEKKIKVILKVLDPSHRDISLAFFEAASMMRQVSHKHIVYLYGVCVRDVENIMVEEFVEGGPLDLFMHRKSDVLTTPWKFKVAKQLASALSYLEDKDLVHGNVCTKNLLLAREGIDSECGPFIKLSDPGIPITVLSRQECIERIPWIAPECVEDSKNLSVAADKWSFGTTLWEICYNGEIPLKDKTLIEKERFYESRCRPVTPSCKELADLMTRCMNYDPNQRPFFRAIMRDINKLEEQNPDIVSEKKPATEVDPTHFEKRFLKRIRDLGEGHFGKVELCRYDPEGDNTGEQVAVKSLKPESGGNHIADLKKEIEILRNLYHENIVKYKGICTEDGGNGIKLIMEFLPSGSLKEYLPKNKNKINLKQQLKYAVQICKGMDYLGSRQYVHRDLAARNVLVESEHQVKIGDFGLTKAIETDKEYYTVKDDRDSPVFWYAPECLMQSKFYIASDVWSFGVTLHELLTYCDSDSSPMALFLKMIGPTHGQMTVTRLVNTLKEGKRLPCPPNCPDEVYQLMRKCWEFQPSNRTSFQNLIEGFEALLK
T2 sequence (O60674 whole entry): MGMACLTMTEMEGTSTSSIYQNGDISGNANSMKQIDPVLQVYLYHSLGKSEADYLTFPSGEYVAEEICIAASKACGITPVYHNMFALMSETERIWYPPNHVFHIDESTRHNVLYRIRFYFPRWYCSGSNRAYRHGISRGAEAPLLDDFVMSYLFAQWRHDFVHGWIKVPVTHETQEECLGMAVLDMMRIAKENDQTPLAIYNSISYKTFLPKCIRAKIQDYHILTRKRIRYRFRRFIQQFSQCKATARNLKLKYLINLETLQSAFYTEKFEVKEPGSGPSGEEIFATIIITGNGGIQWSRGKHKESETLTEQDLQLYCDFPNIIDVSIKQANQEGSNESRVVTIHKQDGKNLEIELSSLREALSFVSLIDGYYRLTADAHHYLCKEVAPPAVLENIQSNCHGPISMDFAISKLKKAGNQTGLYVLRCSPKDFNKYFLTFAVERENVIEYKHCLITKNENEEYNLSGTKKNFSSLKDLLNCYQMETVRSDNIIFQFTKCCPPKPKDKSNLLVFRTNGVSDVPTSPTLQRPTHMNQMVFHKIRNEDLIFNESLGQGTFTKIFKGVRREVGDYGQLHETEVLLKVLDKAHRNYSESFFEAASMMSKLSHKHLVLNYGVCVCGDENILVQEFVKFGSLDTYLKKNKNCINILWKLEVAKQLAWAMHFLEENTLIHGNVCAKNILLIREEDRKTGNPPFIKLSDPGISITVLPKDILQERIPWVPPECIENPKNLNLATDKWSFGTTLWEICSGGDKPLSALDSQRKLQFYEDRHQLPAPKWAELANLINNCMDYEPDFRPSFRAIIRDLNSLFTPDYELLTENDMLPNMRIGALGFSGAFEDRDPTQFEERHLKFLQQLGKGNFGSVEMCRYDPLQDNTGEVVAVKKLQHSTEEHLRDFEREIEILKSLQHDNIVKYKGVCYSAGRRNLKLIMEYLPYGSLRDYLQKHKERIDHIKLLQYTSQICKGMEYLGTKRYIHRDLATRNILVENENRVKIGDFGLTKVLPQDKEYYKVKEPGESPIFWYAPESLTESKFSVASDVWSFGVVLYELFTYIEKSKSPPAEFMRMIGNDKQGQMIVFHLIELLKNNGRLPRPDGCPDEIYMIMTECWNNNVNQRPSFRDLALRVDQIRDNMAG

SMILES	JAK 1 (pKi) [1]	JAK 2 (pKi) [2]	Tyk 2 (pKi) [3]	Tall-1 (pIC50) [4, 6]	JAK 3 (pKi) [5]	JAK3 (pKi)-JAK1 (pKi) [5, 7]	Ki [1] [nM]	Ki [2] [nM]	Ki [3] [nM]	IC50 [4, 8] [nM]	Ki [5] [nM]	Tall-1 (pIC50) [4, 9]	JAK3 (pKi)-JAK1 (pKi) [5, 10]	IC50 [4, 6] [nM]	IC50 [4, 11] [nM]
C=CC(=O)N1CC(CN(C)c2cc(-c3ccc(O)c(F)c3)cc3[nH]ncc23)C1 [Compound 4-7]	E (a pKi value of 7 or below (Ki of 100 nM or above))	E (a pKi value of 7 or below (Ki of 100 nM or above))	E (a pKi value of 7 or below (Ki of 100 nM or above))	B (a pIC50 value between 6.7 (included) and 7.5 (IC50 between 200 nM and 32 nM))	C (a pKi value between 8 and 9 (Ki between 10 nM and 1 nM))	B (a value of 2.3 to 3)									
C=CC(=O)N1CC[C@H](Oc2cc(-c3ccc(O)c(F)c3)cc3[nH]ncc23)C1 [Compound 1-5]						A (a value of 3 or above)	> 100	10 to 100	> 100	< 31.6	< 0.1				
CCC1(COc2nc(-c3ccc(O)cc3)cc3[nH]ncc23)CN(C(=O)/C=C/CN(C)C)C1 [Compound 3-61]	E (a pKi value of 7 or below (Ki of 100 nM or above))	D (a pKi value between 7 and 8 (Ki between 100 nM and 10 nM))	E (a pKi value of 7 or below (Ki of 100 nM or above))	A (a pIC50 value≥7.5 (IC50≤32 nM))	A (a pKi value≥10 (Ki≤0.1 nM))	A (a value of 3 or above)									
C=CC(=O)N1CC(C)(Oc2cc(-c3ccc(O)c(Cl)c3)cc3[nH]ncc23)C1 [Compound 5-23]	E (a pKi value of 7 or below (Ki of 100 nM or above))	E (a pKi value of 7 or below (Ki of 100 nM or above))	E (a pKi value of 7 or below (Ki of 100 nM or above))		B (a pKi value between 9 and 10 (Ki between 1 nM and 0.1 nM))							B (a pIC50 value between 6.7 (included) and 7.5 (IC50 between 200 nM and 32 nM))	A (a value of 3 or above)		
COC1CCN(C/C=C/C(=O)N2CC(COc3cc(-c4ccc(O)cc4)cc4[nH]ncc34)C2)CC1 [Compound 3-127]						A (a value of 3 or above)	> 100	10 to 100	> 100	31.6 to 200	< 0.1				
CSC1CCN(C/C=C/C(=O)N2CC(COc3cc(-c4ccc(O)cc4)cc4[nH]ncc34)C2)CC1 [Compound 3-131]						B (a value of 2.3 to 3)	> 100	0.1 to 1	> 100	< 31.6	0.1 to 1				
COCCN(C)C/C=C/C(=O)N1CC(COc2cc(-c3ccc(O)cc3)cc3[nH]ncc23)C1 [Compound 3-119]						B (a value of 2.3 to 3)	> 100	10 to 100	> 100	31.6 to 200	< 0.1				
C=CC(=O)N1CC(C#N)(COc2cc(-c3ccc(O)c(Cl)c3)cc3[nH]ncc23)C1 [Compound 3-22]						A (a value of 3 or above)	> 100	> 100	> 100		< 0.1			31.6 to 200	
CN(C)C/C=C/C(=O)N1CC(C(C)(C)Oc2cc(-c3ccc(O)c(F)c3)cc3[nH]ncc23)C1 [Compound 3-27]						A (a value of 3 or above)	> 100	> 100	> 100	31.6 to 200	< 0.1				
C=CC(=O)N1CCC(Oc2cc(-c3ccc(O)c(F)c3)nc3[nH]ncc23)CC1 [Compound 6-18]							> 100	> 100	> 100		< 0.1		A (a value of 3 or above)		31.6 to 200
Cc1cc(-c2cc(OCC3CN(C(=O)/C=C/CN(C)C)C3)c3cn[nH]c3c2)ccc1O [Compound 18-8]	E (a pKi value of 7 or below (Ki of 100 nM or above))	E (a pKi value of 7 or below (Ki of 100 nM or above))	E (a pKi value of 7 or below (Ki of 100 nM or above))		B (a pKi value between 9 and 10 (Ki between 1 nM and 0.1 nM))							B (a pIC50 value between 6.7 (included) and 7.5 (IC50 between 200 nM and 32 nM))	A (a value of 3 or above)		
CN(C)C/C=C/C(=O)N1CC(Oc2cc(-c3ccc(O)c(Cl)c3)cc3[nH]ncc23)(C(F)F)C1 [Compound 5-16]	E (a pKi value of 7 or below (Ki of 100 nM or above))	6	E (a pKi value of 7 or below (Ki of 100 nM or above))	A (a pIC50 value≥7.5 (IC50≤32 nM))	A (a pKi value≥10 (Ki≤0.1 nM))	A (a value of 3 or above)									
C=CC(=O)N1CCC(Oc2cc(-c3ccc(O)c(Cl)c3)nc3[nH]ncc23)CC1 [Compound 6-17]							> 100	> 100	> 100		< 0.1		A (a value of 3 or above)		31.6 to 200
C=CC(=O)N1CC(COc2cc(-c3ccc(O)cc3)cc3[nH]ncc23)C1C (stereo not drawn) [Compound 3-114]	E (a pKi value of 7 or below (Ki of 100 nM or above))	E (a pKi value of 7 or below (Ki of 100 nM or above))	E (a pKi value of 7 or below (Ki of 100 nM or above))	A (a pIC50 value≥7.5 (IC50≤32 nM))	B (a pKi value between 9 and 10 (Ki between 1 nM and 0.1 nM))	A (a value of 3 or above)									
C=CC(=O)N1CCC(F)(C(=O)Nc2cc(-c3ccc(O)cc3)cc3[nH]ncc23)CC1 [Compound 12-58]							> 100	10 to 100	> 100		< 0.1		A (a value of 3 or above)		31.6 to 200
